For 20 compounds, EC50 results are on record in US9346809B2 (LEO PHARMA A/S, priority 2009, dated 2016).

pEC50: −log10 of the molar value. Where only a bound is given, the exact number is not on record here.

Common to all, as to format: biochemical
Test [1] addresses T1, TYK2 (aa 871-1187, catalytic domain, GST-tag) (Homo sapiens, UniProt P29597).
T1 construct: JAK1 (aa 850-1154) and TYK2 (aa 871-1187) are expressed with an N-terminally fused GST-tag; GST (N); purchased Carna Biosciences, Inc; host or cells: baculovirus expression system
T1 sequence (P29597 871-1187): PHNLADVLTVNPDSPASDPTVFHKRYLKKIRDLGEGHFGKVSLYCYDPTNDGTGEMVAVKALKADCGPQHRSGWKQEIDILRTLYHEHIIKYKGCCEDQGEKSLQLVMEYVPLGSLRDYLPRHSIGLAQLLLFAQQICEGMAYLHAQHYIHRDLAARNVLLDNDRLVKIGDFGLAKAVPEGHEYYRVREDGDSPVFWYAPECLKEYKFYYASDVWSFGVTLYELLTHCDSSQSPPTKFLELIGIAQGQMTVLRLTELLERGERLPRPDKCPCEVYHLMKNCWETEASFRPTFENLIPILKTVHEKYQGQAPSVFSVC
The test is described as follows: JAK kinase assay (HTRF, phosphorylation of TK substrate-biotin), TYK2. Conditions: HTRF assay, ATP at Km (13 μM); read-out: TYK2 kinase inhibitory activity (EC50 indicator). An outline of the steps: (§1)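 Catalytic-domain kinases phosphorylated 1 μM biotin-TK substrate at ATP Km (JAK1 7 μM, JAK2 4 μM, JAK3 2 μM, TYK2 13 μM) in Hepes pH 7.0 with DTT and MgCl2, for 20-30 min at RT; JAK1 and TYK2 also had 50 nM SEB. Detection was by HTRF (streptavidin-XL665/Cryptate antibody) overnight, giving EC50.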
In general terms: In TR-FRET formats the signal depends on donor and acceptor labels being close together.

In test [2] the target is T2, JAK1 (aa 850-1154, catalytic domain, GST-tag) (Homo sapiens, UniProt P23458).
T2 construct: JAK1 (aa 850-1154) and TYK2 (aa 871-1187) are expressed with an N-terminally fused GST-tag; GST (N); purchased Carna Biosciences, Inc; host or cells: baculovirus expression system
The test can be described thus: JAK kinase assay (HTRF, phosphorylation of TK substrate-biotin), JAK1. The conditions noted are these: HTRF assay, ATP at Km (7 μM); read-out: JAK1 kinase inhibitory activity (EC50 indicator). Put shortly:
as §1

Test [3] deals with T3, JAK3 (catalytic domain, His-tag) (Homo sapiens, UniProt P52333).
T3 construct: All four purified enzymes contain only the catalytic domain; His (N); purchased Carna Biosciences, Inc; host or cells: baculovirus expression system
The test is described as follows: JAK kinase assay (HTRF, phosphorylation of TK substrate-biotin), JAK3. Conditions: HTRF assay, ATP at Km (2 μM); read-out: JAK3 kinase inhibitory activity (EC50 indicator). An outline of the steps: as §1

Test [4] deals with T4, JAK2 (catalytic domain, His-tag) (Homo sapiens, UniProt O60674).
T4 construct: All four purified enzymes contain only the catalytic domain; His (N); purchased Carna Biosciences, Inc; host or cells: baculovirus expression system
The test can be described thus: JAK kinase assay (HTRF, phosphorylation of TK substrate-biotin), JAK2. Conditions: HTRF assay, ATP at Km (4 μM); read-out: JAK2 kinase inhibitory activity (EC50 indicator). An outline of the steps:
as §1

T2 sequence (P23458 850-1154): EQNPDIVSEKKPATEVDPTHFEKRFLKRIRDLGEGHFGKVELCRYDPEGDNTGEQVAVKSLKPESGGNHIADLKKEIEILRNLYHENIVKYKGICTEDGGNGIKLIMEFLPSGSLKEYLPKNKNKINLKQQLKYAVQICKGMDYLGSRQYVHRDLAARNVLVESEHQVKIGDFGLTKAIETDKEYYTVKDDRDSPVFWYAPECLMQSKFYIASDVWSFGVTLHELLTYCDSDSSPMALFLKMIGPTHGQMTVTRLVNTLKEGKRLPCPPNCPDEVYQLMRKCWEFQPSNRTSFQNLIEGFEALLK
T3 sequence (P52333 822-1111 limits assumed): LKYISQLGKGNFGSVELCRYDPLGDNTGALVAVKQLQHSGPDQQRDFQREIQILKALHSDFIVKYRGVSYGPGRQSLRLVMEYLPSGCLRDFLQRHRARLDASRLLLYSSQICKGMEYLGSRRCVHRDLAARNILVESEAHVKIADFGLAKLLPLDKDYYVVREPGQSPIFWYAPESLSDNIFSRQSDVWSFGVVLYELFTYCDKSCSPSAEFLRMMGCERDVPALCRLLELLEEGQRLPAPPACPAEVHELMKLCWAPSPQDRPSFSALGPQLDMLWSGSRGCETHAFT
T4 sequence (O60674 849-1124 limits assumed): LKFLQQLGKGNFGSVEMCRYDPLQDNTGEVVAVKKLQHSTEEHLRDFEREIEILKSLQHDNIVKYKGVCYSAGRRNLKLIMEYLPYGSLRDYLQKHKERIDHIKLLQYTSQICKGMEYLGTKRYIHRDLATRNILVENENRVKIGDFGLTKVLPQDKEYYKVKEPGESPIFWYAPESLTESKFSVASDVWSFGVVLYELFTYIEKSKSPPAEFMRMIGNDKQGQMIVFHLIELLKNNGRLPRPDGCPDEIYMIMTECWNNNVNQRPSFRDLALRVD

In general, pEC50 refers to −log10 of the EC50, conventionally taken in molar units. On to `NS(=O)(=O)c1cccc(CC(=O)N2CCN(c3ncnc4[nH]ccc34)CC23CC3)c1` [Example 398, 3-{2-Oxo-2-[7-(7H-pyrrolo[2,3-d]pyrimidin-4-yl)-4,7-diaza-spiro[2.5]oct-4-yl]-ethyl}-benzenesulfonamide], for which the pEC50 in test [1] was under 6.30; in test [2], over 7.00; in test [3], over 7.00; in test [4], over 7.00.

For the compound `NS(=O)(=O)c1ccc(OCC(=O)N2CCN(c3ncnc4[nH]ccc34)CC23CC3)cc1` [Example 399, 4-{2-Oxo-2-[7-(7H-pyrrolo[2,3-d]pyrimidin-4-yl)-4,7-diaza-spiro[2.5]oct-4-yl]-ethoxy}-benzenesulfonamide], the pEC50 in test [1], in test [2], in test [3] and in test [4] was over 7.00 throughout.

`NS(=O)(=O)c1ccc(-c2ccc(C(=O)N3CCN(c4ncnc5[nH]ccc45)CC34CC4)o2)cc1` [Example 400, 4-{5-[7-(7H-Pyrrolo[2,3-d]pyrimidin-4-yl)-4,7-diaza-spiro[2.5]octane-4-carbonyl]-furan-2-yl}-benzenesulfonamide]: the pEC50 in test [1] is 6.30 to 7.00; in test [2], over 7.00; in test [3] it was 6.30 to 7.00; in test [4], over 7.00.

As to `NS(=O)(=O)c1ccc(NC(=O)C(=O)N2CCN(c3ncnc4[nH]ccc34)CC23CC3)cc1` [Example 401, 2-Oxo-2-[7-(7H-pyrrolo[2,3-d]pyrimidin-4-yl)-4,7-diaza-spiro[2.5]oct-4-yl]-N-(4-sulfamoyl-phenyl)-acetamide], the pEC50 in test [1], in test [2], in test [3] and in test [4] was over 7.00 in each case.

Take `NS(=O)(=O)c1c[nH]c(C(=O)N2CCN(c3ncnc4[nH]ccc34)CC23CC3)c1` [Example 402, 5-[7-(7H-Pyrrolo[2,3-d]pyrimidin-4-yl)-4,7-diaza-spiro[2.5]octane-4-carbonyl]-1H-pyrrole-3-sulfonic acid amide]: the negative logarithm of the EC50 (pEC50) in test [1], in test [2], in test [3] and in test [4] was over 7.00 each time.

`Cc1cc(C(=O)N2CCN(c3ncnc4[nH]ccc34)CC23CC3)ccc1S(C)(=O)=O` [Example 403, (4-Methanesulfonyl-3-methyl-phenyl)-[7-(7H-pyrrolo[2,3-d]pyrimidin-4-yl)-4,7-diaza-spiro[2.5]oct-4-yl]-methanone]: the negative-log EC50 (pEC50) was 6.30 to 7.00 in test [1], over 7.00 in test [2], 6.30 to 7.00 in test [3] and over 7.00 in test [4].

As to `NS(=O)(=O)c1ccc(SCC(=O)N2CCN(c3ncnc4[nH]ccc34)CC23CC3)cc1` [Example 404, 4-{2-Oxo-2-[7-(7H-pyrrolo[2,3-d]pyrimidin-4-yl)-4,7-diaza-spiro[2.5]oct-4-yl]-ethylsulfanyl}-benzenesulfonamide], the pEC50 in test [1], in test [2], in test [3] and in test [4] was over 7.00 throughout.

On to `NS(=O)(=O)c1ccc(C(=O)N2CCN(c3ncnc4[nH]ccc34)CC23CC3)s1` [Example 405, 5-[7-(7H-Pyrrolo[2,3-d]pyrimidin-4-yl)-4,7-diaza-spiro[2.5]octane-4-carbonyl]-thiophene-2-sulfonic acid amide], for which the pEC50 in test [1], in test [2], in test [3] and in test [4] was over 7.00 in each case.

For the compound `O=C(c1ccc(S(=O)(=O)CCO)cc1)N1CCN(c2ncnc3[nH]ccc23)CC12CC2` [Example 406, [4-(2-Hydroxy-ethanesulfonyl)-phenyl]-[7-(7H-pyrrolo[2,3-d]pyrimidin-4-yl)-4,7-diaza-spiro[2.5]oct-4-yl]-methanone], the pEC50 was 6.30 to 7.00 in test [1], over 7.00 in test [2], 6.30 to 7.00 in test [3] and over 7.00 in test [4].

`O=C(c1ccc(S(=O)(=O)C2CCCC2)cc1)N1CCN(c2ncnc3[nH]ccc23)CC12CC2` [Example 407, (4-Cyclopentanesulfonyl-phenyl)-[7-(7H-pyrrolo[2,3-d]pyrimidin-4-yl)-4,7-diaza-spiro[2.5]oct-4-yl]-methanone]: the negative logarithm of the EC50 (pEC50) was under 6.30 in test [1], over 7.00 in test [2], under 6.30 in test [3] and over 7.00 in test [4].

In the case of `N#CCCCS(=O)(=O)c1ccc(C(=O)N2CCN(c3ncnc4[nH]ccc34)CC23CC3)cc1` [Example 408, 4-{4-[7-(7H-Pyrrolo[2,3-d]pyrimidin-4-yl)-4,7-diaza-spiro[2.5]octane-4-carbonyl]-benzenesulfonyl}-butyronitrile], the pEC50 in test [1] was under 6.30; in test [2], over 7.00; in test [3], under 6.30; in test [4], over 7.00.

For `NS(=O)(=O)Cc1ccc(C(=O)N2CCN(c3ncnc4[nH]ccc34)CC23CC3)cc1` [Example 409, {4-[7-(7H-Pyrrolo[2,3-d]pyrimidin-4-yl)-4,7-diaza-spiro[2.5]octane-4-carbonyl]-phenyl}-methanesulfonamide], the pEC50 in test [1] was 6.30 to 7.00; in test [2], over 7.00; in test [3] it was over 7.00; in test [4] it was over 7.00.

With `NS(=O)(=O)c1ccc(C(=O)NCC(=O)N2CCN(c3ncnc4[nH]ccc34)CC23CC3)cc1` [Example 410, N-{2-Oxo-2-[7-(7H-pyrrolo[2,3-d]pyrimidin-4-yl)-4,7-diaza-spiro[2.5]oct-4-yl]-ethyl}-4-sulfamoyl-benzamide], the pEC50 in test [1], in test [2], in test [3] and in test [4] was over 7.00 in each case.

On to `Cc1cc(S(N)(=O)=O)ccc1OCC(=O)N1CCN(c2ncnc3[nH]ccc23)CC12CC2` [Example 411, 3-Methyl-4-{2-oxo-2-[7-(7H-pyrrolo[2,3-d]pyrimidin-4-yl)-4,7-diaza-spiro[2.5]oct-4-yl]-ethoxy}-benzenesulfonamide], for which the negative logarithm of the EC50 (pEC50) in test [1], in test [2], in test [3] and in test [4] was over 7.00 in each case.

Turning to `NS(=O)(=O)c1cnn(CC(=O)N2CCN(c3ncnc4[nH]ccc34)CC23CC3)c1` [Example 412, 1-{2-Oxo-2-[7-(7H-pyrrolo[2,3-d]pyrimidin-4-yl)-4,7-diaza-spiro[2.5]oct-4-yl]-ethyl}-1H-pyrazole-4-sulfonic acid amide], the pEC50 was under 6.30 in test [1], over 7.00 in test [2], over 7.00 in test [3] and over 7.00 in test [4].

On to `O=C(C1CCc2ccccc21)N1CCN(c2ncnc3[nH]ccc23)CC12CC2` (centres unmarked) [Example 413, Indan-1-yl-[7-(7H-pyrrolo[2,3-d]pyrimidin-4-yl)-4,7-diaza-spiro[2.5]oct-4-yl]-methanone], for which the negative-log EC50 (pEC50) was under 6.30 in test [1], 6.30 to 7.00 in test [2], 6.30 to 7.00 in test [3] and over 7.00 in test [4].

On to `Cc1cnc(C(=O)N2CCN(c3ncnc4[nH]ccc34)CC23CC3)cn1` [Example 414, (5-Methyl-pyrazin-2-yl)-[7-(7H-pyrrolo[2,3-d]pyrimidin-4-yl)-4,7-diaza-spiro[2.5]oct-4-yl]-methanone], for which the pEC50 in test [1] is 6.30 to 7.00; in test [2] it was over 7.00; in test [3], over 7.00; in test [4] it was over 7.00.

`O=C([C@@H]1CCCc2ccccc21)N1CCN(c2ncnc3[nH]ccc23)CC12CC2` [Example 415, [7-(7H-Pyrrolo[2,3-d]pyrimidin-4-yl)-4,7-diaza-spiro[2.5]oct-4-yl]-(1,2,3,4-tetrahydro-naphthalen-1-yl)-methanone]: the negative logarithm of the EC50 (pEC50) in test [1] is under 6.30; in test [2], 6.30 to 7.00; in test [3], under 6.30; in test [4], 6.30 to 7.00.

Turning to `O=C([C@H]1CCCc2ccccc21)N1CCN(c2ncnc3[nH]ccc23)CC12CC2` [Example 416, [7-(7H-Pyrrolo[2,3-d]pyrimidin-4-yl)-4,7-diaza-spiro[2.5]oct-4-yl]-(1,2,3,4-tetrahydro-naphthalen-1-yl)-methanone], the pEC50 in test [1] is under 6.30; in test [2] it was 6.30 to 7.00; in test [3], 6.30 to 7.00; in test [4] it was over 7.00.

On to `Cc1nccnc1C(=O)N1CCN(c2ncnc3[nH]ccc23)CC12CC2` [Example 417, (3-Methyl-pyrazin-2-yl)-[7-(7H-pyrrolo[2,3-d]pyrimidin-4-yl)-4,7-diaza-spiro[2.5]oct-4-yl]-methanone], for which the pEC50 in test [1], in test [2], in test [3] and in test [4] was over 7.00 in each case.
